# PubChem BioAssay (NCI)
#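 Test compounds were applied to cells in 96-well plates for 48 hours at 5 doses. Definition used: TGI = concentration required for complete inhibition of growth.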
# Columns and labels:
# Experiment in all cases: NCI-60 cell line screen, 48 h
# DU-145 prostate = system: DU-145 prostate
# RPMI-8226 leukemia = system: RPMI-8226 leukemia
# NCI-H23 lung = system: NCI-H23 lung
# SF-539 CNS = system: SF-539 CNS
# EKVX NSCLC = system: EKVX NSCLC
# HCC-2998 colon = system: HCC-2998 colon
# M14 melanoma = system: M14 melanoma
# OVCAR-8 ovarian = system: OVCAR-8 ovarian
# PC-3 prostate = system: PC-3 prostate
# IGROV1 ovarian = system: IGROV1 ovarian
# 786-0 renal = system: 786-0 renal
# CCRF-CEM leukemia = system: CCRF-CEM leukemia
# SK-MEL-28 melanoma = system: SK-MEL-28 melanoma
# MOLT-4 leukemia = system: MOLT-4 leukemia
# SR leukemia = system: SR leukemia
# ACHN renal = system: ACHN renal
# TK-10 renal = system: TK-10 renal
# HOP-92 NSCLC = system: HOP-92 NSCLC
# MCF7 breast = system: MCF7 breast
# NCI-H460 lung = system: NCI-H460 lung
# CAKI-1 renal = system: CAKI-1 renal
# HCT-116 colon = system: HCT-116 colon
# OVCAR-3 ovarian = system: OVCAR-3 ovarian
# KM12 colon = system: KM12 colon
# NCI-H522 lung = system: NCI-H522 lung
# SNB-19 CNS = system: SNB-19 CNS
# HT29 colon = system: HT29 colon
# U251 CNS = system: U251 CNS
# RXF 393 renal = system: RXF 393 renal
# SK-OV-3 ovarian = system: SK-OV-3 ovarian
# SF-268 CNS = system: SF-268 CNS
# MDA-MB-231 breast = system: MDA-MB-231 breast
# SF-295 CNS = system: SF-295 CNS
# MDA-MB-435 = system: MDA-MB-435
# SK-MEL-2 melanoma = system: SK-MEL-2 melanoma
# BT-549 breast = system: BT-549 breast
# SNB-75 CNS = system: SNB-75 CNS
# T-47D breast = system: T-47D breast
# A549 NSCLC = system: A549 NSCLC
# HOP-62 NSCLC = system: HOP-62 NSCLC
# LOX IMVI melanoma = system: LOX IMVI melanoma
# HS 578T breast = system: HS 578T breast
# NCI/ADR-RES ovarian = system: NCI/ADR-RES ovarian
# A498 renal = system: A498 renal
# NCI-H226 lung = system: NCI-H226 lung
# HCT-15 colon = system: HCT-15 colon
# UACC-257 melanoma = system: UACC-257 melanoma
# OVCAR-5 ovarian = system: OVCAR-5 ovarian
# K-562 leukemia = system: K-562 leukemia
# SN12C renal = system: SN12C renal
# OVCAR-4 ovarian = system: OVCAR-4 ovarian
# SK-MEL-5 melanoma = system: SK-MEL-5 melanoma
# UO-31 renal = system: UO-31 renal
# UACC-62 melanoma = system: UACC-62 melanoma
# SW-620 colon = system: SW-620 colon
# COLO 205 colon = system: COLO 205 colon
structure (smiles),measurement,setting,value
O=c1oc2ccccc2c(O)c1C(c1cc(OCc2ccccc2)cc(OCc2ccccc2)c1)c1c(O)c2ccccc2oc1=O,TGI,DU-145 prostate,24.5 µM
same,TGI,RPMI-8226 leukemia,6.08 µM
same,TGI,NCI-H23 lung,23.1 µM
same,TGI,SF-539 CNS,36.7 µM
same,TGI,EKVX NSCLC,41.8 µM
same,TGI,HCC-2998 colon,11.9 µM
same,TGI,M14 melanoma,23 µM
same,TGI,OVCAR-8 ovarian,> 44.5 µM
same,TGI,PC-3 prostate,21.1 µM
same,TGI,IGROV1 ovarian,51.2 µM
same,TGI,786-0 renal,31.7 µM
same,TGI,CCRF-CEM leukemia,> 22.5 µM
same,TGI,SK-MEL-28 melanoma,51.8 µM
same,TGI,MOLT-4 leukemia,19.8 µM
same,TGI,SR leukemia,15 µM
same,TGI,ACHN renal,7.99 µM
same,TGI,TK-10 renal,33.4 µM
same,TGI,HOP-92 NSCLC,> 28.3 µM
same,TGI,MCF7 breast,48.5 µM
same,TGI,NCI-H460 lung,11 µM
same,TGI,CAKI-1 renal,22.1 µM
same,TGI,HCT-116 colon,17.5 µM
same,TGI,OVCAR-3 ovarian,35 µM
same,TGI,KM12 colon,14.7 µM
same,TGI,NCI-H522 lung,37.9 µM
same,TGI,SNB-19 CNS,17.9 µM
same,TGI,HT29 colon,33.5 µM
same,TGI,U251 CNS,> 47.3 µM
same,TGI,RXF 393 renal,> 52 µM
same,TGI,SK-OV-3 ovarian,20.1 µM
same,TGI,SF-268 CNS,33.3 µM
same,TGI,MDA-MB-231 breast,34.5 µM
same,TGI,SF-295 CNS,24 µM
same,TGI,MDA-MB-435,31.3 µM
same,TGI,SK-MEL-2 melanoma,27.3 µM
same,TGI,BT-549 breast,20.9 µM
same,TGI,SNB-75 CNS,17 µM
same,TGI,T-47D breast,38.1 µM
same,TGI,A549 NSCLC,> 56.4 µM
same,TGI,HOP-62 NSCLC,37 µM
same,TGI,LOX IMVI melanoma,77.5 µM
same,TGI,HS 578T breast,89.3 µM
same,TGI,NCI/ADR-RES ovarian,83.9 µM
same,TGI,A498 renal,32.1 µM
same,TGI,NCI-H226 lung,> 45.3 µM
same,TGI,HCT-15 colon,11.8 µM
same,TGI,UACC-257 melanoma,38.2 µM
same,TGI,OVCAR-5 ovarian,34.5 µM
same,TGI,K-562 leukemia,> 25.4 µM
same,TGI,SN12C renal,21.3 µM
same,TGI,OVCAR-4 ovarian,68.4 µM
same,TGI,SK-MEL-5 melanoma,21.2 µM
same,TGI,UO-31 renal,19.9 µM
same,TGI,UACC-62 melanoma,15.7 µM
same,TGI,SW-620 colon,> 43.8 µM
same,TGI,COLO 205 colon,33.8 µM
